Assay results as given in ChEMBL document CHEMBL1201862, “PubChem BioAssay data set” (2004).
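In this assay, cells in 96-well plates receive the compound at five concentrations for 48 hours. Endpoints are linearly interpolated between the surrounding concentrations. Abbreviation: GI50, concentration required for 50% inhibition of growth.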 Calls of active or inactive are those of the source. Rule as the data show it: active = GI50 up to about 1.1 µM and inactive = higher.

Columns and labels:
Experiment in all cases: DTP human tumour cell line panel, 48 h
A549 = system: A549
BT-549 = system: BT-549
CAKI-1 = system: CAKI-1
COLO 205 = system: COLO 205
DU-145 = system: DU-145
HCC 2998 = system: HCC 2998
HCT-15 = system: HCT-15
HL-60 = system: HL-60
MDA-MB-231 = system: MDA-MB-231
MDA-MB-435 = system: MDA-MB-435
MDA-N = system: MDA-N
MOLT-4 = system: MOLT-4
OVCAR-4 = system: OVCAR-4
OVCAR-8 = system: OVCAR-8
SF-268 = system: SF-268
SK-MEL-5 = system: SK-MEL-5
SK-OV-3 = system: SK-OV-3
SR = system: SR
SW-620 = system: SW-620
A498 = system: A498

SMILES | GI50 (A549) | GI50 (BT-549) | GI50 (CAKI-1) | GI50 (COLO 205) | GI50 (DU-145) | GI50 (HCC 2998) | GI50 (HCT-15) [µM] | GI50 (HL-60) | GI50 (MDA-MB-231) | GI50 (MDA-MB-435) | GI50 (MDA-N) | GI50 (MOLT-4) | GI50 (OVCAR-4) | GI50 (OVCAR-8) | GI50 (SF-268) | GI50 (SK-MEL-5) | GI50 (SK-OV-3) | GI50 (SR) | GI50 (SW-620) | GI50 (A498)
Cc1ccc(/C=C2\N=C(N3CCCC(CO)C3)NC2=O)cc1 (configuration not stated) | > 100 µM (inactive) | > 100 µM (inactive) | > 100 µM (inactive) | > 100 µM (inactive) | > 100 µM (inactive) | > 100 µM (inactive) | > 100 | > 100 µM (inactive) | > 100 µM (inactive) | > 100 µM (inactive) | > 100 µM (inactive) | > 100 µM (inactive) | > 100 µM (inactive) | > 100 µM (inactive) | > 100 µM (inactive) | > 100 µM (inactive) | > 100 µM (inactive) | > 100 µM (inactive) | > 100 µM (inactive) | 
CCC(CC)(CO)CNc1cc(Cl)nc(N)n1 | > 100 µM (inactive) | > 100 µM (inactive) | > 100 µM (inactive) | > 100 µM (inactive) | > 100 µM (inactive) |  | > 100 | > 100 µM (inactive) | > 100 µM (inactive) | > 100 µM (inactive) | 89.5 µM (inactive) | > 100 µM (inactive) | 87.9 µM (inactive) | > 100 µM (inactive) | 55.6 µM (inactive) | 60.7 µM (inactive) | > 100 µM (inactive) | > 100 µM (inactive) | > 100 µM (inactive) | > 100 µM (inactive)
CN(Cc1cnc2nc(N)nc(N)c2n1)c1ccc(C(=O)NC(CCC(=O)NC(CC(P(=O)(O)O)P(=O)(O)O)C(=O)O)C(=O)O)cc1 (configuration not stated) | > 100 µM (inactive) | > 100 µM (inactive) |  | > 100 µM (inactive) | > 100 µM (inactive) |  | > 100 |  | > 100 µM (inactive) | > 100 µM (inactive) | > 100 µM (inactive) | > 100 µM (inactive) | > 100 µM (inactive) | > 100 µM (inactive) | > 100 µM (inactive) | > 100 µM (inactive) | > 100 µM (inactive) | > 100 µM (inactive) | > 100 µM (inactive) | 
C/C1=C/C[C@@H](/C(C)=C/c2csc(C)n2)OC(=O)C[C@H](O)C(C)(C)C(=O)[C@H](C)[C@@H](O)[C@@H](C)CCC1 [EPOTHILONE D] | < 0.0001 µM (active) | < 0.0001 µM (active) | < 0.0001 µM (active) | < 0.0001 µM (active) | < 0.0001 µM (active) | < 0.0001 µM (active) | < 0.0001 |  | < 0.0001 µM (active) | < 0.0001 µM (active) | < 0.0001 µM (active) | < 0.0001 µM (active) | 0.137 µM (active) | < 0.0001 µM (active) | < 0.0001 µM (active) | < 0.0001 µM (active) | < 0.0001 µM (active) | < 0.0001 µM (active) | < 0.0001 µM (active) | 
CC1(C)C(=O)/C=C\C(=O)C(C)(C)C(=O)/C=C\C(=O)C(C)(C)C(=O)/C=C\C(=O)C(C)(C)C(=O)/C=C\C1=O | > 70.8 µM (inactive) | > 10 µM (inactive) | 12.6 µM (inactive) | 15.5 µM (inactive) | > 100 µM (inactive) |  | 20.4 | 3 µM (inactive) | 26.2 µM (inactive) | 31.2 µM (inactive) | 41.8 µM (inactive) | 3.53 µM (inactive) | 30.3 µM (inactive) | 19.7 µM (inactive) | > 45.9 µM (inactive) | 22.6 µM (inactive) | > 70 µM (inactive) | 3.94 µM (inactive) | 11.1 µM (inactive) | > 68.5 µM (inactive)
Cc1ccc2nc(-c3ccccc3)cc(=O)n2c1 | > 100 µM (inactive) | > 100 µM (inactive) |  | > 100 µM (inactive) | > 100 µM (inactive) | > 100 µM (inactive) | > 100 | > 100 µM (inactive) | > 100 µM (inactive) | > 100 µM (inactive) | > 100 µM (inactive) | > 100 µM (inactive) | > 100 µM (inactive) | > 100 µM (inactive) | > 100 µM (inactive) | > 100 µM (inactive) | > 100 µM (inactive) | > 100 µM (inactive) | > 100 µM (inactive) | 
CCN(CC)CCC(=O)O[C@H]1CC[C@H](CC(C)[C@H]2CC(=O)C(C)C=C(C)[C@H](OC(=O)CCN(CC)CC)C(OC)C(=O)[C@@H](C)CC(C)/C=C/C=C/C=C(C)C(OC)CC3CC[C@H](C)[C@](O)(O3)C(=O)C(=O)N3CCCCC3C(=O)O2)CC1OC (some centres not stated) | 0.251 µM (active) | < 0.01 µM (active) | 0.108 µM (active) | 0.906 µM (active) | 0.179 µM (active) | 0.267 µM (active) | 0.137 |  | 0.228 µM (active) | 0.264 µM (active) | 0.294 µM (active) | 0.0185 µM (active) | < 0.0132 µM (active) | 0.0362 µM (active) | 0.348 µM (active) | 0.173 µM (active) | 0.0314 µM (active) |  | 0.266 µM (active) | 0.0161 µM (active)
CC(=O)O[C@H](C[C@@H](C)[C@H]1C(=O)[C@H](O)[C@@]2(C)C3CC[C@H]4C(C)(C)[C@@H](OC5OCC(O)C(O)C5O)CC[C@@]45C[C@@]35CC[C@]12C)[C@@H]1OC1(C)C (some centres not stated) | 27.9 µM (inactive) | 21.9 µM (inactive) | 16.8 µM (inactive) | 22 µM (inactive) | 19 µM (inactive) | 16.3 µM (inactive) | 24.6 | 2.21 µM (inactive) | 16.1 µM (inactive) | 17.7 µM (inactive) | 19.3 µM (inactive) |  | 22.4 µM (inactive) | 20.2 µM (inactive) | 20.7 µM (inactive) | 16.1 µM (inactive) | 12.7 µM (inactive) |  | 32.4 µM (inactive) | 15.9 µM (inactive)
CN(C)CCCN1c2ccccc2C(C)(C)c2ccccc21 [DIMETACRINE] | 14.8 µM (inactive) | 14.9 µM (inactive) | 12.6 µM (inactive) | 14.6 µM (inactive) | 15.9 µM (inactive) |  | 16.3 | 15.1 µM (inactive) | 14.7 µM (inactive) | 13.2 µM (inactive) | 14.2 µM (inactive) | 13.7 µM (inactive) | 13.9 µM (inactive) | 16.1 µM (inactive) | 13.3 µM (inactive) | 13.4 µM (inactive) | 13.9 µM (inactive) | 13.1 µM (inactive) | 21.2 µM (inactive) | 11 µM (inactive)
CSc1nc(NC(C)C)c2c(n1)Sc1nc3ccccc3n1C2O (configuration not stated) | 3.41 µM (inactive) | 6.79 µM (inactive) | 82.4 µM (inactive) | 1.65 µM (inactive) | 3.18 µM (inactive) | 5.55 µM (inactive) | 4.1 |  | 9.14 µM (inactive) | 1.74 µM (inactive) | 2.75 µM (inactive) | 2.84 µM (inactive) | 4.98 µM (inactive) | 4.9 µM (inactive) | 4.43 µM (inactive) |  | 5.28 µM (inactive) | 2.84 µM (inactive) | 2.27 µM (inactive) | 
COc1ccc(CN2C[C@H]3[C@@H](CC(=O)O[C@H]3C)CC2=O)cc1 | > 100 µM (inactive) | > 100 µM (inactive) | > 100 µM (inactive) | > 100 µM (inactive) | > 100 µM (inactive) | > 100 µM (inactive) | > 100 |  | > 100 µM (inactive) | > 100 µM (inactive) | > 100 µM (inactive) | > 100 µM (inactive) | > 100 µM (inactive) | > 100 µM (inactive) | > 100 µM (inactive) | > 100 µM (inactive) | > 100 µM (inactive) | > 100 µM (inactive) | > 100 µM (inactive) | > 100 µM (inactive)
NC(=O)NCCCC(NC(=O)OCCCCCCn1ccc(=O)[nH]c1=O)C(=O)O (configuration not stated) | > 100 µM (inactive) | > 100 µM (inactive) | > 100 µM (inactive) | > 100 µM (inactive) | > 100 µM (inactive) | > 100 µM (inactive) | > 100 | > 100 µM (inactive) | > 100 µM (inactive) | > 100 µM (inactive) | > 100 µM (inactive) | > 100 µM (inactive) | > 100 µM (inactive) | > 100 µM (inactive) | > 100 µM (inactive) |  | > 100 µM (inactive) | 9.42 µM (inactive) | > 100 µM (inactive) | 
COc1ccc(NCC(=O)Nn2c(C)nc3ccc(S(=O)(=O)Nc4ccc(OC)cc4)cc3c2=O)cc1 | > 100 µM (inactive) | > 100 µM (inactive) | > 100 µM (inactive) | > 100 µM (inactive) | > 100 µM (inactive) | > 100 µM (inactive) | > 100 | > 100 µM (inactive) | > 100 µM (inactive) | > 100 µM (inactive) | > 100 µM (inactive) | > 100 µM (inactive) | > 100 µM (inactive) | > 100 µM (inactive) | > 100 µM (inactive) |  | > 100 µM (inactive) | > 100 µM (inactive) | > 100 µM (inactive) | 
CSC1=C(SC)SC(=C2SC3=C(SC(=C4SCCS4)S3)S2)S1 | > 100 µM (inactive) | > 100 µM (inactive) | > 100 µM (inactive) | > 100 µM (inactive) | > 100 µM (inactive) | > 100 µM (inactive) | > 100 | > 100 µM (inactive) | > 100 µM (inactive) | > 100 µM (inactive) | > 100 µM (inactive) | > 100 µM (inactive) | > 100 µM (inactive) | > 100 µM (inactive) | > 100 µM (inactive) | > 100 µM (inactive) | > 100 µM (inactive) | > 100 µM (inactive) | > 100 µM (inactive) | 
CCOc1ccc2c(c1)/C(=C(\C(Cl)=C(Cl)Cl)[N+](=O)[O-])N2 | > 100 µM (inactive) | 28.2 µM (inactive) | > 100 µM (inactive) | > 100 µM (inactive) | > 100 µM (inactive) | > 100 µM (inactive) | > 100 |  | > 100 µM (inactive) | > 100 µM (inactive) | > 100 µM (inactive) | > 100 µM (inactive) | 33.2 µM (inactive) | > 100 µM (inactive) | 66.2 µM (inactive) |  | > 100 µM (inactive) |  | > 100 µM (inactive) | > 100 µM (inactive)
